Measured values taken from ChEMBL document CHEMBL3124816, “Preparation and optimization of new 4-(2-(indolin-1-yl)-2-oxoethyl)-2-morpholinothiazole-5-carboxylic acid and amide derivatives as potent and selective PI3Kβ inhibitors” (Bioorg Med Chem Lett, 2014).

Key:
[1] = Tmax in Sprague-Dawley rat at 10 mg/kg, po; assay type: ADME, organism-based; parameters: dose 10 mg/kg, route oral; conditions: in vivo
[2] = Apparent permeability of the compound in human Caco2 cells; assay type: ADME, cell-based; conditions: Caco-2
[3] = molecular target: T1, Phosphatidylinositol 4,5-bisphosphate 3-kinase catalytic subunit delta isoform (Homo sapiens, UniProt O00329); experiment: Inhibition of human PI3Kdelta after 15 mins
T1 sequence (O00329 whole entry): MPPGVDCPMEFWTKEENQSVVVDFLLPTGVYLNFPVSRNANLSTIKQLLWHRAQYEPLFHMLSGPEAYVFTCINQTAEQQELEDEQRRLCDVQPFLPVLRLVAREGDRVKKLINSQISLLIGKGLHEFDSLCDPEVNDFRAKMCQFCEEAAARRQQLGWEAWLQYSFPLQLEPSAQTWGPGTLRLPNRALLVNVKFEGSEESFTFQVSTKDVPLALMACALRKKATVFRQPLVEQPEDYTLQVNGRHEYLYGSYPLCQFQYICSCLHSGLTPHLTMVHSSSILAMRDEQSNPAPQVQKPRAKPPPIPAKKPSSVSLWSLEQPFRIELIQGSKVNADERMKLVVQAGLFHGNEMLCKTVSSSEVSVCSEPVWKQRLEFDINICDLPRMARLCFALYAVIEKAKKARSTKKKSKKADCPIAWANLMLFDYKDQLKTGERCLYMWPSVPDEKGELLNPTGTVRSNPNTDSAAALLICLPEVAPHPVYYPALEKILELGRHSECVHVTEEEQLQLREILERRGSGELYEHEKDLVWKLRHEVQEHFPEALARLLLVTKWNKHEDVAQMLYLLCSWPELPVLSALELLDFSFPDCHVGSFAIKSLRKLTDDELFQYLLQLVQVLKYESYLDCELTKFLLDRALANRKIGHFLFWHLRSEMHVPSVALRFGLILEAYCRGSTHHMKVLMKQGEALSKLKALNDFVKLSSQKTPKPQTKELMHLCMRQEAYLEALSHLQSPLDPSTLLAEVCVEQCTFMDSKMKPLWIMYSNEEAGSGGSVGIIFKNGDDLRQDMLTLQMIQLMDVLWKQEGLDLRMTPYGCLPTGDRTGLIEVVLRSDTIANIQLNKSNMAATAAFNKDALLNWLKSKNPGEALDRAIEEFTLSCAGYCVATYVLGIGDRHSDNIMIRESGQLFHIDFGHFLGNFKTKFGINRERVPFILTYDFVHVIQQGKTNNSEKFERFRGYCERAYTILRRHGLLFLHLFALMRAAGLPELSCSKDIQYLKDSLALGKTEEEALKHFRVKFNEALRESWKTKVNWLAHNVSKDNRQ

[4] = molecular target: Phosphatidylinositol 4,5-bisphosphate 3-kinase catalytic subunit gamma isoform (Homo sapiens, UniProt P48736); experiment: Inhibition of human PI3Kgamma after 15 mins
Phosphatidylinositol 4,5-bisphosphate 3-kinase catalytic subunit gamma isoform, sequence (P48736 whole entry, canonical isoform): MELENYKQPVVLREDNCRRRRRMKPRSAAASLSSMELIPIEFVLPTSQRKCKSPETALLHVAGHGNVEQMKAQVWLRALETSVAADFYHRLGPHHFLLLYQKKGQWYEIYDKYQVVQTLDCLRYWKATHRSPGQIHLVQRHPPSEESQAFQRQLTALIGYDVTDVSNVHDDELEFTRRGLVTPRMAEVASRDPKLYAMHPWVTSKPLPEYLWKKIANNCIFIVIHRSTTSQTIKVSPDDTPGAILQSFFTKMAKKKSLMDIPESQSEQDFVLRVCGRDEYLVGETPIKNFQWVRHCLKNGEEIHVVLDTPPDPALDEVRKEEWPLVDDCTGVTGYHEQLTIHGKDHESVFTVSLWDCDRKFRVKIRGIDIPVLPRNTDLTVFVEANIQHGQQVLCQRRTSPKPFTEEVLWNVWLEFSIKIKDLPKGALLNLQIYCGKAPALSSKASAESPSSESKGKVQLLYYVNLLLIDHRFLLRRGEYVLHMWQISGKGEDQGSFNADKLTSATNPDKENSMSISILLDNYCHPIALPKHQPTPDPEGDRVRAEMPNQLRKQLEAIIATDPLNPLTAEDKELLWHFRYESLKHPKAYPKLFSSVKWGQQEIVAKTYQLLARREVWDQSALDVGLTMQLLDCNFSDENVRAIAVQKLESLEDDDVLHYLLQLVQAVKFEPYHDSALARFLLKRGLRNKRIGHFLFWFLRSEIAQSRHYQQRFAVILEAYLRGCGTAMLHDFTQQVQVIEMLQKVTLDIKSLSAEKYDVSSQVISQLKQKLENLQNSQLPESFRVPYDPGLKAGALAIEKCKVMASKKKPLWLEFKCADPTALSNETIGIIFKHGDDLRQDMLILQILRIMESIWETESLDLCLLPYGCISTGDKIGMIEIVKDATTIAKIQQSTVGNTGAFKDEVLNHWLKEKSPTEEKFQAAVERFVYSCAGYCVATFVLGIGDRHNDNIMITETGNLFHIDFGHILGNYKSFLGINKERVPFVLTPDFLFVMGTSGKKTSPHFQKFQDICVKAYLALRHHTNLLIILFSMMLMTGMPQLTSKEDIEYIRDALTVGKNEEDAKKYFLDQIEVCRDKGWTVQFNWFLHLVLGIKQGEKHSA

[5] = Volume of distribution at steady state in Sprague-Dawley rat at 3 mg/kg, iv; assay type: ADME, organism-based; parameters: dose 3 mg/kg, route intravenous; conditions: in vivo, read-out: Vdss
[6] = molecular target: T2, Phosphatidylinositol 4,5-bisphosphate 3-kinase catalytic subunit beta isoform (Homo sapiens, UniProt P42338); experiment: Inhibition of PI3Kbeta in human PTEN-deficient PC3 cells assessed as Akt phosphorylation at S473; assay type: cell-based, PC-3
T2 sequence (P42338 whole entry, canonical isoform): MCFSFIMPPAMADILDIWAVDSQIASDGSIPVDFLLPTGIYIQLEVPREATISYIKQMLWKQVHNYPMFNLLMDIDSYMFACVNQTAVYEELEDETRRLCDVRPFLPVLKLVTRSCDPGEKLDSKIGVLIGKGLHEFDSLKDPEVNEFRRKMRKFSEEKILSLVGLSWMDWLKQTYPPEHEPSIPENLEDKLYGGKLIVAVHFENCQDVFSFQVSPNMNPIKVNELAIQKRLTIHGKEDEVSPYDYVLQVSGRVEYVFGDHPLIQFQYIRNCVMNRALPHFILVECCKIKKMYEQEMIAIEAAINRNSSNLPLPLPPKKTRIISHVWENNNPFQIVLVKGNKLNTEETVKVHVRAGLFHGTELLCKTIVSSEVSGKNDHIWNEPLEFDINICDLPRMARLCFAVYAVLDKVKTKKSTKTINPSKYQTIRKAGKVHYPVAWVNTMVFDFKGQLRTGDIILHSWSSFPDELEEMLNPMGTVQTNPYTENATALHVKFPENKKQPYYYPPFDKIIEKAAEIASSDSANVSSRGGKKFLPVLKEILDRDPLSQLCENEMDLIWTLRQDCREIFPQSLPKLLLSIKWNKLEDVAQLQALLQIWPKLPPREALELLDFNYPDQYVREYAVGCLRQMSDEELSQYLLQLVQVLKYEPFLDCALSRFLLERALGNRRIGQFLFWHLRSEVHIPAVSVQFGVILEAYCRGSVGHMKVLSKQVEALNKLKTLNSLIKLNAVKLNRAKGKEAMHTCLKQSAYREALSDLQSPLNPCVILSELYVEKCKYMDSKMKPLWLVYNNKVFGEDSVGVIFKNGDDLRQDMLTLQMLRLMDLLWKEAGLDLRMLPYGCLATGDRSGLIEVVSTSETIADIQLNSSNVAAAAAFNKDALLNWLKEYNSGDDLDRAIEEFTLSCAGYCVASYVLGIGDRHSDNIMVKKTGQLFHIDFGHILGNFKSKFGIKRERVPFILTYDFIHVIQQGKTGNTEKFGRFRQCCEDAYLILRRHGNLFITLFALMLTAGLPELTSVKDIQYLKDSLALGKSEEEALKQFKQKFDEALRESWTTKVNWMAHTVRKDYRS

[7] = molecular target: Phosphatidylinositol 4,5-bisphosphate 3-kinase catalytic subunit alpha isoform (Homo sapiens, UniProt P42336); experiment: Inhibition of human PI3Kalpha after 15 mins
Phosphatidylinositol 4,5-bisphosphate 3-kinase catalytic subunit alpha isoform, sequence (P42336 whole entry, canonical isoform): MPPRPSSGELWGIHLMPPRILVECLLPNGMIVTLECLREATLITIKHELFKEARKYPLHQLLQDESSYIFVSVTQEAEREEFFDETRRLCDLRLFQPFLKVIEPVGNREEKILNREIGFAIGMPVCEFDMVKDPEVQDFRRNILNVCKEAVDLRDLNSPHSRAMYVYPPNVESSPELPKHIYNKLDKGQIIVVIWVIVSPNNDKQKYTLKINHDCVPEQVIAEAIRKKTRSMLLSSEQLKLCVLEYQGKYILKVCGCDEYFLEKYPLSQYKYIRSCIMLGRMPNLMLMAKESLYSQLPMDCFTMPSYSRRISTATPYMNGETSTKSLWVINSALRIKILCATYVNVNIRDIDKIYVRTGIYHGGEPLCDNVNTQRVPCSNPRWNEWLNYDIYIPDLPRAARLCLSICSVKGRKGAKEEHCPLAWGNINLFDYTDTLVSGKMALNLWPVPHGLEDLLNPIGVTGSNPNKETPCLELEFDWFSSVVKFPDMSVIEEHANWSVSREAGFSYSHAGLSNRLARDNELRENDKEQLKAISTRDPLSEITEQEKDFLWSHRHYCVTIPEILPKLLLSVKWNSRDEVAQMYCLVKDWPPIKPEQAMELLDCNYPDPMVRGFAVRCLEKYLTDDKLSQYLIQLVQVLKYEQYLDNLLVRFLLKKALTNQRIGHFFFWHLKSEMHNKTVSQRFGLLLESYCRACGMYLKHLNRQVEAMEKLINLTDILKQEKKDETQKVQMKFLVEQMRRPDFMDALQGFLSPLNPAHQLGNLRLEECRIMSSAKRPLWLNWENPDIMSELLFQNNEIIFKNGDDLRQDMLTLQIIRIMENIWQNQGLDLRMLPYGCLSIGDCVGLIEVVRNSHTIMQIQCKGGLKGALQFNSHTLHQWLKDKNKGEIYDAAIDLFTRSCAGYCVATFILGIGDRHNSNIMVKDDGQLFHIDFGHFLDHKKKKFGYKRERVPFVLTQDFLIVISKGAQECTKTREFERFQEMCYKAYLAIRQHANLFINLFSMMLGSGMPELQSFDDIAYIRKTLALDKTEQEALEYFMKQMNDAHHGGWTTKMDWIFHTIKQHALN

[8] = Thermodynamic solubility of the compound in 50 mM Phosphate buffer at pH 7.4 after 16 hrs by HPLC analysis; assay type: physicochemical; conditions: buffer, pH 7.4, 16 h; 16 h
[9] = Terminal elimination half life in Sprague-Dawley rat at 3 mg/kg, iv; assay type: ADME, organism-based; parameters: dose 3 mg/kg, route intravenous; conditions: in vivo, read-out: beta t1/2 (converted)
[10] = Oral bioavailability in Sprague-Dawley rat at 10 mg/kg; assay type: ADME, organism-based; conditions: in vivo
[11] = Plasma concentration in SCID mouse harboring human PTEN-deficient PC3 cells at 150 mg/kg, po after 7 hrs; assay type: ADME, organism-based, PC-3; parameters: dose 150 mg/kg, route oral
[12] = Drug metabolism in mouse liver microsomes assessed as compound lability; assay type: ADME, Microsome; conditions: microsomes
[13] = Terminal elimination half life in Sprague-Dawley rat at 10 mg/kg, po; assay type: ADME, organism-based; parameters: dose 10 mg/kg, route oral; conditions: in vivo, read-out: beta t1/2 (converted)
[14] = Plasma protein binding in mouse; assay type: ADME, organism-based; conditions: read-out: PPB (converted)
[15] = Plasma concentration in SCID mouse harboring human PTEN-deficient PC3 cells at 150 mg/kg, po after 1 hr; assay type: ADME, organism-based, PC-3; parameters: dose 150 mg/kg, route oral
[16] = Clearance in Sprague-Dawley rat at 3 mg/kg, iv; assay type: ADME, organism-based; parameters: dose 3 mg/kg, route intravenous; conditions: in vivo
[17] = AUC in Sprague-Dawley rat at 10 mg/kg, po; assay type: ADME, organism-based; parameters: dose 10 mg/kg, route oral; conditions: plasma
[18] = molecular target: T2, Phosphatidylinositol 4,5-bisphosphate 3-kinase catalytic subunit beta isoform; experiment: Inhibition of human PI3Kbeta after 15 mins
[19] = Drug metabolism in rat liver microsomes assessed as compound lability; assay type: ADME; conditions: read-out: Drug metabolism
[20] = Cmax in Sprague-Dawley rat at 10 mg/kg, po; assay type: ADME, organism-based; parameters: dose 10 mg/kg, route oral; conditions: in vivo
[21] = Plasma concentration in SCID mouse harboring human PTEN-deficient PC3 cells at 150 mg/kg, po after 16 hrs; assay type: ADME, organism-based, PC-3; parameters: dose 150 mg/kg, route oral

- Tmax [1]: 0.25 h
- Papp [2]: 0.5 ×10⁻⁶ cm/s
- IC50 [3]: 0.063 µM
- IC50 [4]: 4.35 µM
- Vd [5]: 0.65 L/kg
- IC50 [6]: 0.14 µM
- IC50 [7]: 0.395 µM
- Therm_solubility [8]: 3.795 mM
- half-life [9]: 3.8 h
- bioavailability [10]: 99%
- concentration at 7 h [11]: 79 µM
- Drug metabolism [12]: 17%
- half-life [13]: 6.3 h
- fraction unbound [14]: 0.015
- concentration at 1 h [15]: 181 µM
- clearance [16]: 4.17 mL/min/kg
- AUC [17]: 41000 ng·h/mL
- IC50 [18]: 0.01 µM
- metabolised [19]: 7%
- Cmax [20]: 15100 ng/mL
- concentration at 16 h [21]: 3 µM
Compound: CC1Cc2c(Br)cccc2N1C(=O)Cc1nc(N2CCOCC2)sc1C(=O)O (single isomer, unassigned; enantiomer 1)
